# Experimental data reported in patent US8124121B2, “Flavors, flavor modifiers, tastants, taste enhancers, umami or sweet tastants, and/or enhancers and use thereof” (Senomyx, Inc., priority 2003, dated 2012).
# Molecular target: T1, hT1R1/hT1R3 umami receptor (Homo sapiens, UniProt Q7RTX0+Q7RTX1)
# T1 construct: expressed in transfected cells; host or cells: HEK293 derivative stably expressing Gα15, clone I-17, expression induced with mifepristone
# T1 sequence (Q7RTX1 21-841): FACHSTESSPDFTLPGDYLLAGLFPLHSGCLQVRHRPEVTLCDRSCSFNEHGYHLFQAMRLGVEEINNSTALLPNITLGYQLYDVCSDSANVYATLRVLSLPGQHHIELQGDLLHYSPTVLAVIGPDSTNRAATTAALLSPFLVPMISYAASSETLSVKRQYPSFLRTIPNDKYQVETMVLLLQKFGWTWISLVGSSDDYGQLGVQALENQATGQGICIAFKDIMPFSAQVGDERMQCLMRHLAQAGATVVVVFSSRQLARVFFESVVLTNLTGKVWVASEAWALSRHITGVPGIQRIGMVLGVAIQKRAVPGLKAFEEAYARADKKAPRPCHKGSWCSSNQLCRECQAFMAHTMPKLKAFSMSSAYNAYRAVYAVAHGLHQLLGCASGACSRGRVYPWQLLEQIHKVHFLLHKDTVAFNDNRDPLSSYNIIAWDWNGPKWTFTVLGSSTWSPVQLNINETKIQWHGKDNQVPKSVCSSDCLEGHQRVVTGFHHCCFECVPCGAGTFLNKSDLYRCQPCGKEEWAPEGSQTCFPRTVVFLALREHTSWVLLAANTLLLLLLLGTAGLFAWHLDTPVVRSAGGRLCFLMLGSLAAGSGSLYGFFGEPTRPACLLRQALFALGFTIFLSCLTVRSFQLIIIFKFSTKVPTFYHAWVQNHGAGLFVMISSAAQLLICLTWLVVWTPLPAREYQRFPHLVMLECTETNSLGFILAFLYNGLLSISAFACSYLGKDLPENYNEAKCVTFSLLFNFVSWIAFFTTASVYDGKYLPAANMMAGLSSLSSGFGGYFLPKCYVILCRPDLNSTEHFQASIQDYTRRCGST
# T1 sequence (Q7RTX0 21-852): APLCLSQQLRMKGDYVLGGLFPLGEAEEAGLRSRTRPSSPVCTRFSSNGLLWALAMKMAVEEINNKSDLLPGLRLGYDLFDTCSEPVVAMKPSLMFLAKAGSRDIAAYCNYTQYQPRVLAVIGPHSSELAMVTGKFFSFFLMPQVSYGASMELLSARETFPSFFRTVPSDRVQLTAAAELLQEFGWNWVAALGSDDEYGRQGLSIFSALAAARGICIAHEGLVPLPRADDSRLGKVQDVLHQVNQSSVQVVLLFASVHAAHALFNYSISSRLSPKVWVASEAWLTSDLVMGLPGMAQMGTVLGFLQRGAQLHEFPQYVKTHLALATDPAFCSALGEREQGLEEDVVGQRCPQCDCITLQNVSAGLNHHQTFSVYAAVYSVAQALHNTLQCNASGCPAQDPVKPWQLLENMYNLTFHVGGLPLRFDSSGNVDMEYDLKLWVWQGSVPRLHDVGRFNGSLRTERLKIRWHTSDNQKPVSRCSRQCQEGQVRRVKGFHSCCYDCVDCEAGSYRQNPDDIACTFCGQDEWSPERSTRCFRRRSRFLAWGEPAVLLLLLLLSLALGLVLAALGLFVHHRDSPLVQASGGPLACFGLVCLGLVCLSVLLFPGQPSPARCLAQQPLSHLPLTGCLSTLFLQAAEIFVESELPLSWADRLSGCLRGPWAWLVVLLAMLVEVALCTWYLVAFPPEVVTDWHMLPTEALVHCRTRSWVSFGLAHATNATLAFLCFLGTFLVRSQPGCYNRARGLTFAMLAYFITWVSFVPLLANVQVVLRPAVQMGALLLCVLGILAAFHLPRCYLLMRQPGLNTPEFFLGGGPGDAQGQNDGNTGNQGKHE
# Assay: Umami taste enhancement activity assay (EC50 ratio vs. MSG)
# Format: cell-based
# Details: Table A; compound @ 0.3 uM
# Description: A series of measurements of the dose response is run in solutions comprising MSG alone, then a second dose response is run with MSG in combination with predetermined amounts of a candidate compound of Formula (I) at the same time.
# Typical compound concentrations tested were 30 μM, 10 μM, 3 μM, 1 μM, 0.3 μM, 0.1 μM and 0.03 μM. The relative efficacy of compounds of Formula (I) at enhancing the receptor was determined by calculating the magnitude of a shift in the EC50 for monosodium glutamate. Enhancement was defined as a ratio (EC50R) corresponding to the EC50 of monosodium glutamate, determined in the absence of the test compound, divided by the EC50 of monosodium glutamate, determined in the presence of the test compound.
# Stated alternatively, “EC50 ratio” as compared to MSG is calculated based on the following definitions: EC50 Ratio vs. MSG=EC50 (MSG)/EC50(MSG+[Compound]) • wherein “[compound]” refers to the concentration of the compound of Formula (I) used to elicit (or enhance or potentiate) the MSG dose response.
row,Ec50 ratio (vs. MSG),Compound
1,6.5,"CCC(COC)NC(=O)c1cc2cc(Cl)ccc2o1 (stereo not drawn) [Example A11, 5-chloro-N-(1-methoxybutan-2-yl)benzofuran-2-carboxamide]"

# Same assay, conditions: Table A; compound @ 1 uM
row,Compound,Ec50 ratio (vs. MSG)
1,"CCCC(CCC)NC(=O)c1cc2cc(OC)ccc2o1 [Example A10, N-(heptan-4-yl)-5-methoxybenzofuran-2-carboxamide]",4.51
2,"Cc1ccc(C(=O)NC2CCCc3ccccc32)s1 (stereo not drawn) [Example A39, 5-Methyl-thiophene-2-carboxylic acid (1,2,3,4-tetrahydro-naphthalen-1-yl)-amide]",2.3

# Next, values leading:
row,Ec50 ratio (vs. MSG),Compound
1,3.8,"COc1cccc(C(=O)NC2CCCc3ccccc32)c1O (stereo not drawn) [Example A87, 2-hydroxy-3-methoxy-N-(1,2,3,4-tetrahydronaphthalen-1-yl)benzamide]"
2,5.7,"COc1cccc(C(=O)N[C@H]2CCCc3ccccc32)c1O [Example A93, (S)-2-hydroxy-3-methoxy-N-(1,2,3,4-tetrahydronaphthalen-1-yl)benzamide]"

# Same assay, conditions: Table C; compound Con. 0.3 uM
row,Ec50 ratio (vs MSG),Compound
1,2.1,"CCOc1ccc(NC(=O)NC2CCCCC2C)cc1 (stereo not drawn) [Example C10, 1-(4-ethoxyphenyl)-3-(2-methylcyclohexyl)urea]"

# Same assay, conditions: Table D; compound @ 1 uM
row,Ec50 ratio (vs. MSG),Compound
1,6.3,"CCCC(CCC)NC(=O)/C=C/c1cccs1 [Example D6, N-(1-Propyl-butyl)-3-thiophen-2-yl-acrylamide]"

# Same assay, conditions: compound present at 0.01 μM
row,EC50 ratio (enhanced the effectiveness of monosodium glutamate),Compound
1,13.18,"COC(=O)[C@@H](CC(C)C)NC(=O)c1ccc(OC)c(Cl)c1 [Example 62, (R)-methyl 2-(3-chloro-4-methoxybenzamido)-4-methylpentanoate]"

# Same assay, conditions: compound present at 0.03 μM
row,EC50 ratio (enhanced the effectiveness of monosodium glutamate),Compound
1,3.68,"CCCC(CCC)NC(=O)c1ccc2c(c1)OC(C)O2 (stereo not drawn) [Example 18, N-(heptan-4-yl)-2-methylbenzo[d][1,3]dioxole-5-carboxamide]"

# Same assay, conditions: compound present at 0.3 μM
row,Compound,EC50 ratio (enhanced the effectiveness of monosodium glutamate)
1,"O=C(NC1CCCc2ccccc21)c1ccc2c(c1)OCO2 (stereo not drawn) [Example 7, N-(1,2,3,4-tetrahydronaphthalen-1-yl)benzo[d][1,3]dioxole-5-carboxamide]",7.8
2,"CCCC(CCC)NC(=O)c1cc2ccccc2o1 [Example 25, Benzofuran-2-carboxylic(1-propylbutyl)amide]",2.6
3,"CCC(CC)NC(=O)c1ccc(OC)c(Cl)c1 [Example 61, 3-chloro-4-methoxy-N-(pentan-3-yl)benzamide]",6.28
4,"CCCC(CCC)NC(=O)/C=C/c1ccc(OC)c(OC)c1 [Example 87, 3-(3,4-Dimethoxy-phenyl)-N-(1-propyl-butyl)-acrylamide]",2.4
5,"O=C(NC1CCc2ccccc21)c1ccc2c(c1)OCO2 (stereo not drawn) [Example 118, Benzo[1,3]dioxole-5-carboxylic Acid indan-1-ylamide]",5.33

# Next, values leading:
row,EC50 ratio (enhanced the effectiveness of monosodium glutamate),Compound
1,2.7,"COc1ccc(C(=O)N[C@H](C)c2ccccc2)cc1Cl [Example 63, (R)-3-chloro-4-methoxy-N-(1-phenylethyl)benzamide]"
2,7,"Cc1cc(C(=O)NC(C)CCc2ccccc2)ccc1O (stereo not drawn) [Example 111, 4-Hydroxy-3-methyl-N-(1-methyl-3-phenyl-propyl)-benzamide]"
3,18.85,"COc1ccccc1CNC(=O)C(=O)NCCc1ccccn1 [Example 122, N-(2-Methoxy-benzyl)-N′-(2-pyridin-2-yl-ethyl)-oxalamide]"
4,7.61,"CCCC(CCC)NC(=O)Nc1ccc(OC)cc1OC [Example 159, 1-(2,4-dimethoxyphenyl)-3-(heptan-4-yl)urea]"

# Same assay, conditions: compound present at 1 μM
row,Compound,EC50 ratio (enhanced the effectiveness of monosodium glutamate)
1,"CC1CCCC(NC(=O)c2ccc3c(c2)OCO3)C1C (stereo not drawn) [Example 4, N-(2,3-dimethylcyclohexyl)benzo[d][1,3]dioxole-5-carboxamide]",8.4
2,"CCCC(CCC)NC(=O)c1ccc2c(c1)OC(F)(F)O2 [Example 22, 2,2-difluoro-N-(heptan-4-yl)benzo[d][1,3]dioxole-5-carboxamide]",2.87
3,"CCCC(CCC)NC(=O)c1ccc(OC)cc1C#N [Example 97, 2-cyano-N-(heptan-4-yl)-4-methoxybenzamide]",4.52

# The remaining lines, values ahead:
row,EC50 ratio (enhanced the effectiveness of monosodium glutamate),Compound
1,3.3,"Cc1ccc(CCNC(=O)c2occc2C)cc1 [Example 120, 3-methyl-N-(p-tolylethyl)furan-2-carboxamide]"
2,11,"COc1ccc(CNC(=O)c2ccccc2-n2cccc2)c(OC)c1 [Example 121, N-(2,4-dimethoxybenzyl)-2-(1H-pyrrol-1-yl)benzamide]"
3,4.95,CCCC(CCC)NC(=O)Nc1ccccc1Cl [Example 158]
4,4.2,"CCOc1ccc(NC(=O)NCCc2ccccn2)cc1 [Example 160, 1-(4-ethoxyphenyl)-3-(2-(pyridine-2-yl)ethyl)urea]"

# Same assay, conditions: compound present at 3 μM
row,Compound,EC50 ratio (enhanced the effectiveness of monosodium glutamate)
1,"CC(C)C[C@H](CO)NC(=O)c1ccc2c(c1)OCO2 [Example 8, (R)—N-(1-hydroxy-4-methylpentan-2-yl)benzo[d][1,3]dioxole-5-carboxamide]",2
2,"CCCC(COC(C)=O)NC(=O)c1ccc2c(c1)OCO2 (stereo not drawn) [Example 14, 2-(benzo[d][1,3]dioxole-6-carboxamido)pentyl Acetate]",4.1
3,"CCCC(CCC)NC(=O)c1ccc2c(c1)OC(CC(=O)OCC)O2 (stereo not drawn) [Example 19, Ethyl 2-(5-(heptan-4-ylcarbamoyl)benzo[d][1,3]dioxol-2-yl)acetate]",2.5
4,"CCCC(CCC)NC(=O)c1ccc2c(c1)OC(C(C)C)O2 (stereo not drawn) [Example 21, N-(heptan-4-yl)-2-isopropylbenzo[d][1,3]dioxole-5-carboxamide]",2.2
5,"O=C(NCc1ccc(OC(F)(F)F)cc1)c1ccsc1 [Example 107, Thiophene-3-carboxylic acid 4-trifluoromethoxy-benzylamide]",8.5

# Now from value to molecule:
row,EC50 ratio (enhanced the effectiveness of monosodium glutamate),Compound
1,5.8,"COc1ccc(CNC(=O)c2sccc2C)c(OC)c1 [Example 108, 3-Methyl-thiophene-2-carboxylic Acid 2,4-dimethoxy-benzylamide]"
2,8,"COc1ccc(CNC(=O)c2ccc(-c3ccccn3)s2)c(OC)c1 [Example 109, 5-Pyridin-2-yl-thiophene-2-carboxylic Acid 2,4-dimethoxy-benzylamide]"
3,7.9,"COc1ccc(CNC(=O)c2ccnn2C)c(OC)c1 [Example 110, 2-Methyl-2H-pyrazole-3-carboxylic Acid 2,4-dimethoxy-benzylamide]"
